{"source": "patent US20260240838A1", "about": "“USE OF NITRONE COMPOUNDS OR PHARMACEUTICALLY ACCEPTABLE SALTS THEREOF IN COMBINATION WITH SGLT-2 INHIBITORS” (GUANGZHOU MAGPIE PHARMACEUTICALS CO., LTD., priority 2022, published 2026)", "key": {"[1]": {"conditions": "FAERS-based analysis, rank order; cited from earlier work"}, "db/db mice [2]": {"test_system": "db/db mice", "test": "Blood glucose testing in db/db mice, TBN/TN-2 alone and with Empagliflozin (Example 1)", "format": "in vivo", "conditions": "for Changes in blood glucose: 6 weeks, compared to Model group; for blood sugar (in words): in combination with a SGLT-2 inhibitor", "source_text": "(§1) Db/db mice are type II diabetes mice caused by leptin receptor gene defect located on chromosome 4. They began to drink, eat, urinate and be obese at the age of 4 weeks. With the increase of age, they have obvious characteristics of hyperglycemia, hyperlipidemia and insulin resistance. Their pathogenesis is very similar to that of type II diabetes patients. With the aggravation of diabetes, db/db mice have a series of complications. The main pathological changes of kidney tissue are dilation of glomerular mesangial interstitium, thickening of glomerular basement membrane, excessive accumulation of extracellular matrix, etc. It is a good model to study the early morphological changes of DKD kidney.\n(§2) 6-week-old db/db mice were given adaptive feeding for 1 week (i.e. 7 weeks), with TBN and TN-2 administered separately and in combination with Empagliflozin twice a day (fixed at 9:00-10:00 am and 3:00-4:00 pm, with an interval of 6 hours), for a continuous 6 weeks of administration.\nDuring the experiment, blood was collected from the tail vein of mice before the start of administration (7 weeks old) to measure their blood glucose levels; After the completion of administration (at 13 weeks of mouse age, i.e. the end of the experiment), serum was taken and the blood glucose levels of each group of mice were measured using a fully automated biochemical analyzer."}, "db/db mice [3]": {"test_system": "db/db mice", "test": "Detection of 24-hour urinary microalbumin in db/db mice by ELISA kit (Example 1)", "format": "in vivo", "conditions": "for Changes in urinary microalbumin: 24-hour urine, compared to Model group; for 24-hour urinary microalbumin (in words): in combination with a SGLT-2 inhibitor", "source_text": "as §1, §2\nDb/db mice were tested for 24-hour urinary microalbumin at 4 and 6 weeks after drug treatment. Each group of mice was placed in a metabolic cage, drinking water freely, and 24-hour urine samples were collected. After centrifugation and precipitation, the levels of microalbuminuria in the 24-hour urine of each group of mice were detected using an ELISA kit."}, "IL-6": {"test_system": "IL-6", "test": "Detection of the level of IL-6 in serum of db/db mice by ELISA kit (Example 1)", "format": "in vivo", "conditions": "for Changes in IL-6: 6 weeks, serum of db/db mice, compared to Model group; for content of IL-6 in the serum of model animals (in words): alone or in combination with a SGLT-2 inhibitor (such as Entegliflozin)", "source_text": "as §1, §2\n(§3) After 6 weeks of administration, the whole blood was left to stand at room temperature for 1 hour. Then, it was transferred to a centrifuge and centrifuged at 3000 rpm for 10 minutes. The upper layer of serum was taken out and placed in an EP tube and stored in a −20° C. freezer for later use. Detection the level of IL-6 and IL-1β in serum of mice in each group using ELISA kit."}, "IL-1β": {"test_system": "IL-1β", "test": "Detection of the level of IL-1β in serum of db/db mice by ELISA kit (Example 1)", "format": "in vivo", "conditions": "6 weeks, compared to Model group", "source_text": "as §1, §2, §3"}, "[4]": {"test_system": "Patients of type II diabetic kidney disease", "test": "Clinical trial of TBN and TBN + SGLT2i: change of UACR relative to baseline (Example 3)", "format": "in vivo, human", "method": "The present invention adopts a test design of multicenter, randomized, double-blind, placebo-controlled parallel control.\nSubjects of the experiments: Patients of type II diabetic kidney disease were taken as the subjects in the experiments (all signed the informed consent form). In at least 2 of the 3 morning urine in the screening period, the urinary microalbumin/creatinine ratio (UACR) is of ≥30 mg/g and <300 mg/g.\nThe medication schedule: Administration of 180 consecutive days. In this example, SGLT2i is commercially available SGLT2i, selected from Engliflozin, Dapagliflozin, and Cargliflozin: Engliflozin once daily, 10 mg; Dapagliflozin once daily, 10 mg; Kagliflozin once daily, 100 mg. In the three subjects in the 300 mg TBN+SGLT2i group, one subject took Engliflozin and two subjects took Dapagliflozin; in the three subjects in the 600 mg TBN+SGLT2i group, all took Dapagliflozin; in the […] in the 1200 mg TBN+SGLT2i group, two subjects took Canagliflozin, one subject took Entegliflozin, and one subject took Dapagliflozin; in the SGLT2i group, one subject took Dapagliflozin."}, "db/db mice [5]": {"test_system": "db/db mice", "test": "Urinary albumin creatinine ratio in db/db mice", "format": "in vivo", "conditions": "in combination with a SGLT-2 inhibitor"}, "[6]": {"conditions": "Empagliflozin 2.5 mg/kg twice/day i.g."}, "[7]": {"conditions": "Empagliflozin 5 mg/kg twice/day i.g."}}}
{"smiles": "CCOc1ccc(Cc2cc([C@@H]3O[C@H](CO)[C@@H](O)[C@H](O)[C@H]3O)ccc2Cl)cc1", "note": "[Dapagliflozin]", "values": [{"measurement": "signal intensity comparison of urinary tract infections", "setting": "[1]", "value": "dapagliflozin>canagliflozin>empagliflozin"}]}
{"smiles": "OC[C@H]1O[C@@H](c2ccc(Cl)c(Cc3ccc(O[C@H]4CCOC4)cc3)c2)[C@H](O)[C@@H](O)[C@@H]1O", "note": "[Empagliflozin, reference compound]", "values": [{"measurement": "Changes in blood glucose", "setting": "db/db mice [2]; [6]", "value": "−38.03", "unit": "%"}, {"measurement": "Changes in blood glucose", "setting": "db/db mice [2]; [7]", "value": "−44.33", "unit": "%"}, {"measurement": "Changes in urinary microalbumin", "setting": "db/db mice [3]; [6]", "value": "−4.18", "unit": "%"}, {"measurement": "Changes in urinary microalbumin", "setting": "db/db mice [3]; [7]", "value": "−18.62", "unit": "%"}, {"measurement": "Changes in IL-6", "setting": "IL-6; [6]", "value": "−8.55", "unit": "%"}, {"measurement": "Changes in IL-6", "setting": "IL-6; [7]", "value": "−75.05", "unit": "%"}, {"measurement": "Changes in IL-1β", "setting": "IL-1β; [6]", "value": "−2.36", "unit": "%"}, {"measurement": "Changes in IL-1β", "setting": "IL-1β; [7]", "value": "−16.32", "unit": "%"}, {"measurement": "signal intensity comparison of urinary tract infections", "setting": "[1]", "value": "dapagliflozin>canagliflozin>empagliflozin"}]}
{"smiles": "Cc1nc(C)c(/C=[N+](\\[O-])C(C)(C)C)nc1C", "note": "[TBN, tetramethylpyrazine nitrone]", "values": [{"measurement": "Changes in blood glucose", "setting": "db/db mice [2]; TBN 10 mg/kg twice/day i.g.", "value": "−0.80", "unit": "%"}, {"measurement": "Changes in blood glucose", "setting": "db/db mice [2]; TBN 30 mg/kg twice/day i.g.", "value": "−17.13", "unit": "%"}, {"measurement": "blood sugar (in words)", "setting": "db/db mice [2]", "value": "synergistically lower"}, {"measurement": "Changes in urinary microalbumin", "setting": "db/db mice [3]; TBN 10 mg/kg twice/day i.g.", "value": "−0.61", "unit": "%"}, {"measurement": "Changes in urinary microalbumin", "setting": "db/db mice [3]; TBN 30 mg/kg twice/day i.g.", "value": "−23.09", "unit": "%"}, {"measurement": "24-hour urinary microalbumin (in words)", "setting": "db/db mice [3]", "value": "reduce"}, {"measurement": "Changes in IL-6", "setting": "IL-6; TBN 10 mg/kg twice/day i.g.", "value": "−36.43", "unit": "%"}, {"measurement": "Changes in IL-6", "setting": "IL-6; TBN 30 mg/kg twice/day i.g.", "value": "−58.34", "unit": "%"}, {"measurement": "content of IL-6 in the serum of model animals (in words)", "setting": "IL-6", "value": "significantly reduce"}, {"measurement": "Changes in IL-1β", "setting": "IL-1β; TBN 10 mg/kg twice/day i.g.", "value": "−5.88", "unit": "%"}, {"measurement": "Changes in IL-1β", "setting": "IL-1β; TBN 30 mg/kg twice/day i.g.", "value": 0.20, "unit": "%"}, {"measurement": "Percentage of changes in UACR relative baseline, Day 90 LS Mean", "setting": "[4]; TBN 300 mg twice/day po, n = 18, Day 90", "value": "−1.48", "unit": "%"}, {"measurement": "Percentage of changes in UACR relative baseline, Day 90 LS Mean", "setting": "[4]; TBN 600 mg twice/day po, n = 19, Day 90", "value": "−43.32", "unit": "%"}, {"measurement": "Percentage of changes in UACR relative baseline, Day 90 LS Mean", "setting": "[4]; TBN 1200 mg twice/day po, n = 14, Day 90", "value": "−37.08", "unit": "%"}, {"measurement": "urinary albumin creatinine ratio (in words)", "setting": "db/db mice [5]", "value": "reduce"}]}
{"smiles": "Cc1nc(/C=[N+](\\[O-])C(C)(C)C)c(C)nc1/C=[N+](\\[O-])C(C)(C)C", "note": "[TN-2]", "values": [{"measurement": "blood sugar (in words)", "setting": "db/db mice [2]", "value": "synergistically lower"}, {"measurement": "24-hour urinary microalbumin (in words)", "setting": "db/db mice [3]", "value": "reduce"}, {"measurement": "content of IL-6 in the serum of model animals (in words)", "setting": "IL-6", "value": "significantly reduce"}, {"measurement": "urinary albumin creatinine ratio (in words)", "setting": "db/db mice [5]", "value": "reduce"}]}
